In this series the test system is chronic lymphocytic leukemia (CLL) samples classified by expression subtype (Ec-i, EC-m1, EC-m2, EC-m3, EC-m4, EC-o, EC-u1, EC-u2). Nature of the series: Ex-vivo drug sensitivity (percent viability) of CLL samples compared between expression subtypes (ECs). For Mean viability in the EC: test concentration or dose not given here. For Mean viability in the other ECs: test concentration or dose not given here. In kind it is cell-based. The text has this: An analysis was completed to determine whether the expression clusters (ECs) can be used to predict the resistance and sensitivity of different chronic lymphocytic leukemias to various drugs. […] The expression subtypes were then used with the drug sensitivity data to compare the percent […] of samples in each expression cluster to the percent viability of samples in all other expression clusters.

On to `C/C1=C\[C@@H](C)C/C=C/[C@H]2[C@@H]3O[C@]3(C)[C@@H](C)[C@H]3[C@H](Cc4c[nH]c5ccccc45)NC(=O)[C@]32C(=O)/C=C/C(=O)[C@@H]1O` [chaetoglobosin A], for which, where the note is “all ECs other than EC-m3”, the “Mean viability in the other ECs” value turned out to be 1.07. Also, under “expression cluster EC-m3”, the “Drug response associated with the EC” value was “Sensitive” and the “Mean viability in the EC” value was determined as 0.98.
Take `C[C@@H]1CN(CC(=O)Nc2ccc3c(c2)Cc2cccc(-c4cc(=O)cc(N5CCOCC5)o4)c2S3)C[C@H](C)O1` [KU-60019]: the “Mean viability in the other ECs” value (all ECs other than EC-m3) is recorded as 0.97 and the “Mean viability in the other ECs” value (all ECs other than EC-u2) was 0.97. Also, the “Drug response associated with the EC” value runs as follows: (expression cluster EC-m3) “Resistant”; (expression cluster EC-u2) “Sensitive”. Also, the “Mean viability in the EC” value (expression cluster EC-m3) was 1.00 and the “Mean viability in the EC” value (expression cluster EC-u2) came out at 0.90.
For `NC(=O)Nc1cc(-c2cccc(F)c2)sc1C(=O)N[C@H]1CCCNC1` [AZD7762], the “Mean viability in the other ECs” value was determined as 0.82 (all ECs other than EC-m3), 0.80 (all ECs other than EC-m4), 0.88 (all ECs other than EC-u1) and 0.85 (all ECs other than EC-u2). Besides, the “Drug response associated with the EC” value by setting is: (expression cluster EC-m3) “Resistant”; (expression cluster EC-m4) “Resistant”; (expression cluster EC-u1) “Sensitive”; (expression cluster EC-u2) “Sensitive”. Further, the “Mean viability in the EC” value by setting is: (expression cluster EC-m3) 0.95; (expression cluster EC-m4) 0.98; (expression cluster EC-u1) 0.74; (expression cluster EC-u2) 0.51.
With `CC(C)c1cc(C(=O)N2Cc3ccc(CN4CCN(C)CC4)cc3C2)c(O)cc1O` [AT13387], the “Mean viability in the other ECs” value runs as follows: (all ECs other than EC-m1) 0.72; (all ECs other than EC-m3) 0.72; (all ECs other than EC-m4) 0.70; (all ECs other than EC-u1) 0.75; (all ECs other than EC-u2) 0.74. For the same molecule, the “Drug response associated with the EC” value is on record as “Resistant” (expression cluster EC-m1); “Resistant” (expression cluster EC-m3); “Resistant” (expression cluster EC-m4); “Sensitive” (expression cluster EC-u1); “Sensitive” (expression cluster EC-u2). Besides, the “Mean viability in the EC” value is, setting by setting: (expression cluster EC-m1) 0.82; (expression cluster EC-m3) 0.81; (expression cluster EC-m4) 0.81; (expression cluster EC-u1) 0.68; (expression cluster EC-u2) 0.50.
For `NC1(c2ccc(-c3nc4ccn5c(=O)[nH]nc5c4cc3-c3ccccc3)cc2)CCC1` [MK-2206], the “Mean viability in the other ECs” value (all ECs other than EC-m1) worked out at 1.00, the “Mean viability in the other ECs” value (all ECs other than EC-m4) stood at 1.00 and the “Mean viability in the other ECs” value (all ECs other than EC-u1) turned out to be 1.02. Also, the “Drug response associated with the EC” value is “Resistant” (expression cluster EC-m1), “Resistant” (expression cluster EC-m4) and “Sensitive” (expression cluster EC-u1). Besides, the “Mean viability in the EC” value is, setting by setting: (expression cluster EC-m1) 1.07; (expression cluster EC-m4) 1.04; (expression cluster EC-u1) 0.98.
As for `Cn1cc(-c2[nH]c3cc(NC(=O)[C@H](N)C4CCCCC4)cc4c3c2C=NNC4=O)cn1` [PF 477736], the “Drug response associated with the EC” value (expression cluster EC-m1) is recorded as “Resistant”, the “Drug response associated with the EC” value (expression cluster EC-m3) is “Resistant”, the “Drug response associated with the EC” value (expression cluster EC-m4) was “Resistant” and the “Drug response associated with the EC” value (expression cluster EC-u1) is “Sensitive”.
As to `COc1cc(Nc2ncc(F)c(Nc3ccc4c(n3)NC(=O)C(C)(C)O4)n2)cc(OC)c1OC` [tamatinib], the “Mean viability in the other ECs” value (all ECs other than EC-i) is listed as 1.03, the “Mean viability in the other ECs” value (all ECs other than EC-m3) is on record as 1.04, the “Mean viability in the other ECs” value (all ECs other than EC-m4) turned out to be 1.03 and the “Mean viability in the other ECs” value (all ECs other than EC-u1) came out at 1.06. Further, the “Drug response associated with the EC” value was “Resistant” (expression cluster EC-i), “Resistant” (expression cluster EC-m3), “Resistant” (expression cluster EC-m4) and “Sensitive” (expression cluster EC-u1). For the same molecule, the “Mean viability in the EC” value came out at 1.07 (expression cluster EC-i), 1.09 (expression cluster EC-m3), 1.09 (expression cluster EC-m4) and 1.00 (expression cluster EC-u1).
Turning to `CC(C)(C)c1cnc(CSc2cnc(NC(=O)C3CCNCC3)s2)o1` [SNS-032], the “Mean viability in the other ECs” value (all ECs other than EC-m4) came out at 0.73. Moreover, for the setting “expression cluster EC-m4”, the “Drug response associated with the EC” value was “Sensitive” and the “Mean viability in the EC” value is on record as 0.66.
`CC[C@H](Nc1ncnc2nc[nH]c12)c1nc2cccc(F)c2c(=O)n1-c1ccccc1` [idelalisib]: the “Mean viability in the other ECs” value was 0.93 (all ECs other than EC-m3), 0.93 (all ECs other than EC-m4), 0.96 (all ECs other than EC-u1) and 0.95 (all ECs other than EC-u2). Further, the “Drug response associated with the EC” value is “Resistant” (expression cluster EC-m3), “Resistant” (expression cluster EC-m4), “Sensitive” (expression cluster EC-u1) and “Sensitive” (expression cluster EC-u2). Moreover, the “Mean viability in the EC” value by setting is: (expression cluster EC-m3) 1.02; (expression cluster EC-m4) 0.99; (expression cluster EC-u1) 0.90; (expression cluster EC-u2) 0.79.
`CO[C@H]1C[C@@H]2CC[C@@H](C)[C@@](O)(O2)C(=O)C(=O)N2CCCC[C@H]2C(=O)O[C@H]([C@H](C)C[C@@H]2CC[C@@H](OCCO)[C@H](OC)C2)CC(=O)[C@H](C)/C=C(\C)[C@@H](O)[C@@H](OC)C(=O)[C@H](C)C[C@H](C)/C=C/C=C/C=C/1C` [everolimus]: the “Mean viability in the other ECs” value (all ECs other than EC-u1) is 0.95. Further, under “expression cluster EC-u1”, the “Drug response associated with the EC” value was “Resistant” and the “Mean viability in the EC” value came out at 0.99.

Source of the values: patent US20230287510A1, “COMPOSITIONS, PANELS, AND METHODS FOR CHARACTERIZING CHRONIC LYMPHOCYTIC LEUKEMIA” (The Broad Institute, Inc., priority 2020, published 2023).
